Test results as given in US12138277B2, “Oligosaccharides for use in the treatment of Parkinson's disease” (UNIVERSITA' DEGLI STUDI DI MILANO, priority 2018, dated 2024).

What was measured:
[1] = system: Neuroblastoma cells of murine origin; test: Proteomic analysis by mass spectroscopy of treated neuroblastoma cells; type: cell-based; conditions: after 24 h of treatment
Protocol: Neuroblastoma cells of murine origin were treated with β-Gal-(1-3)-β-GalNAc-(1-4)-[α-Neu5Ac-(2-3)]-β-Gal-(1-4)-Glc to induce neuronal differentiation (Chiricozzi et al. 2017 Journal of Neurochemistry 143:645-659). After 24 h of treatment, the cells were collected for protein analysis. […] These proteins are involved in cellular signaling of i) excitotoxicity neuroprotection; ii) inhibition of oxidative stress; iii) inhibition of microglia hyperactivation and downregulation of proinflammatory molecules.

Neuroblastoma cells = test: Excitotoxicity protection: DCB-induced death of neuroblastoma cells; type: cell-based
Protocol: In Parkinson's disease, and more generally in the degenerative diseases of the central nervous system, there is a strong activation of the immune system, oxidative stress and excitotoxicity. Neuroblastoma cells were then treated with DCB (3′,4′-Dichlorobenzamyl hydrochloride) to induce an accumulation of intracellular calcium, an experimental strategy which mimics glutamate-induced excitotoxicity.

[2] = Crossing of the blood-brain barrier: radioactivity in brain areas after administration of tritiated oligosaccharide; type: in vivo, Wild-type mice (C57BL/6); conditions: intraperitoneal, subcutaneous or intravenous administration; 10 μg tritiated oligosaccharide; 1 hour and 22 hours after administration
Protocol: Wild-type mice (C57BL/6) of about 3 months were treated with β-[6-^3H]Gal-(1-3)-β-GalNAc-(1-4)-[α-Neu5Ac-(2-3)]-β-Gal-(1-4)-Glc.
Administration was performed intraperitoneally, subcutaneously or intravenously (Orlando P. et al 1979, Pharmacological Research Communications 11:759-773). For the intravenous route, the injection was performed in the central vein of the tail. The treatment was carried out with 10 μg of tritiated oligosaccharide (10 μCi) dissolved in 0.1 ml of saline. For each experimental group 5 animals were used. 1 hour and 22 hours after administration, the animals were sacrificed by cardiac perfusion (10 min), in order to remove the blood, especially in the central nervous system. The brain was removed and the different areas (cortex, hippocampus, substantia nigra, cerebellum, trunk) were identified and separated. Tissue samples were lyophilized, homogenized and the relative associated radioactivity was detected at the β-counter (Orlando et al 1979, Pharmacological Research Communication 11:759-773).

Row | Compound | number of proteins whose expression is induced [1] | toxicity of the oligosaccharide to cells (Neuroblastoma cells; neuroblastoma cells) | protection of cells from DCB-induced death (Neuroblastoma cells; neuroblastoma cells treated with DCB (3′,4′-Dichlorobenzamyl hydrochloride)) | oligosaccharide reaching the central nervous system / crossing the blood-brain barrier (associated radioactivity in brain areas) [2]
1 | CC(=O)N[C@H]1[C@H](O[C@@H]2[C@H](O[C@]3(C(=O)O)C[C@H](O)[C@@H](NC(C)=O)[C@H]([C@H](O)[C@H](O)CO)O3)[C@@H](O)[C@H](O[C@H]3[C@H](O)[C@@H](O)C(O)O[C@@H]3CO)O[C@@H]2CO)O[C@H](CO)[C@H](O)[C@@H]1O[C@@H]1O[C@H](CO)[C@H](O)[C@H](O)[C@H]1O (stereo partly drawn) [β-Gal-(1-3)-β-GalNAc-(1-4)-[α-Neu5Ac-(2-3)]-β-Gal-(1-4)-Glc] | 320 | without being toxic to cells | able to protect cells from DCB-induced death | 
2 | β-[6-^3H]Gal-(1-3)-β-GalNAc-(1-4)-[α-Neu5Ac-(2-3)]-β-Gal-(1-4)-Glc |  |  |  | a fair amount of the oligosaccharide is able to reach the central nervous system, including the substantia nigra, within a few hours
